From patent US20190269666A1, “COMBINATION THERAPY WITH MERESTINIB AND ANTI-PD-L1 OR ANTI-PD-1 INHIBITORS FOR USE IN THE TREATMENT OF CANCER” (Eli Lilly and Company, priority 2016, published 2019)

Assays:
phospho-AXL (p-AXL) = molecular target: T1, phospho-AXL (p-AXL) (Mus musculus, UniProt Q00993); assay: Mouse phospho-RTK array in CT26 cells; format: cell-based; conditions: 500 nM, CT26 cells in vitro
T1 construct: CT26 cells also express high level of phospho-AXL (p-AXL) by western blot analysis; endogenous in cells; host or cells: CT26 (mouse colorectal cancer line)
T1 sequence (Q00993 19-888): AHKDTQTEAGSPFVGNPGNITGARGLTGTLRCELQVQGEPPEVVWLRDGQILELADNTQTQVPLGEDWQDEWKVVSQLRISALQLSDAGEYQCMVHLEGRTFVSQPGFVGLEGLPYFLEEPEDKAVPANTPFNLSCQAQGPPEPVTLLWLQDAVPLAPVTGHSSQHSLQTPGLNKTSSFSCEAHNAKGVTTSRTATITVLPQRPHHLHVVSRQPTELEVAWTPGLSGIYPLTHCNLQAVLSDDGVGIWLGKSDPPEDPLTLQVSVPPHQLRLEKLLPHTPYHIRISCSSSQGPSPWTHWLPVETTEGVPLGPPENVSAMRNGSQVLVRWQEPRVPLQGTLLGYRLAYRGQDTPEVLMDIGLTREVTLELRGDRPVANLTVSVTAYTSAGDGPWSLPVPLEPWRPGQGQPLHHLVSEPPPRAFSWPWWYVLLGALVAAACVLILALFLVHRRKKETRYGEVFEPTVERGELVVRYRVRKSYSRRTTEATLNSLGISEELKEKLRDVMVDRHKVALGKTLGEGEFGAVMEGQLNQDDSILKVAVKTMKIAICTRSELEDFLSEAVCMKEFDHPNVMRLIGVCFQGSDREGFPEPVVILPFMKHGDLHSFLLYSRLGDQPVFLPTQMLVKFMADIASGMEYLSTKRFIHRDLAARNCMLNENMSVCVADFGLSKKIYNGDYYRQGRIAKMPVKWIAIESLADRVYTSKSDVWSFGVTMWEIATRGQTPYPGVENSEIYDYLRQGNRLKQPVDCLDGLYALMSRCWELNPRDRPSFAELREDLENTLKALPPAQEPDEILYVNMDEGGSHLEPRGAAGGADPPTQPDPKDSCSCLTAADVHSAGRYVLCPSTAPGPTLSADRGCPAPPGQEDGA
Protocol: CT26 CRC tumor cells harbor KRAS activating mutation G12D. […] CT26 cells also express high level of phospho-AXL (p-AXL) by western blot analysis and merestinib is shown to decrease p-AXL in vitro by more than 60% at a concentration of 500 nM in the mouse phospho-RTK array, but show very little effect on CT26 cell proliferation (IC50>20 μM).

[1] = system: CT26 colorectal cancer model; assay: Study S010516: merestinib and anti-PD-L1 antibody combinations in CT26 syngeneic mouse tumor model; format: in vivo; design: key to Mean Tumor Volume: mm³; tumor volume v = l×w²×0.536; conditions: for Mean Tumor Volume: in mm³ (unit assumed)
Protocol: A syngeneic mouse tumor model is used to evaluate potential combination effect of merestinib and anti-PD-L1 antibody is the CT26 colorectal cancer model using the mouse colorectal cancer line CT26. This experiment is conducted in immune competent mice (Grosso and Jure-Kunkel, Cancer Immunity Vol. 13, p. 5, January 2013; Duraiswamy et al, Cancer Research, Jun. 15, 2013 73; 3591.). Anti-PD-L1 antibody surrogate (178G7, LSN3370181) (Eppihimer et al. Microcirculation 2002:9(2):133) is used in the mouse study.
Female BALB/c mice (18-20 gm) from Envigo (Harlan Laboratories) are used for this study. Food and water are available ad libitum. Animals are acclimated for one week prior to any experimental manipulation. The study is performed in accordance with AALAC accredited institutional guidelines.
Merestinib is formulated as a solution in 10% PEG 400 in 90% (20% Captisol in water) once weekly. Anti-PD-L1 antibody (178G7, LSN3370181) is formulated in PBS (phosphate buffered saline).
CT26 cells (from internal in vivo pharmacology cell culture group lot CT26.WT.3184878) are used for implantation. Approximately 1×10^6 cells in HBSS are implanted subcutaneously into the right hind flank of the animal under anesthesia.
Study S010516 has six groups: 1) vehicle control (10% PEG 400 in 90% [20% Captisol in water]) dosed orally once daily for 21 days and dosing initiated at Day 6 post-implant of CT26 cells; 2) single agent anti-PD-L1 antibody (178G7, LSN3370181) dosing via IP at 500 μg/animal once weekly for 3 weeks initiated at Day 6 post-implant of CT26 cells; 3) single agent merestinib at 12 mg/kg once daily orally for 21 days and initiated at Day 6 post-implant of CT26 cells; 4) concurrent combination of merestinib (12 mg/kg once daily for 21 days orally) and anti-PD-L1 antibody (500 μg/animal once weekly via IP for 3 weeks) and initiated at Day 6 post-implant of CT26 cells; 5) sequential combination of merestinib (12 mg/kg once daily for 21 days orally and initiated at Day 6 post-implant of CT26 cells) and anti-PD-L1 antibody (500 μg/animal once weekly via IP for 3 weeks and initiated at Day 13 post-implant of CT26 cells); 6) delayed concurrent combination of merestinib (12 mg/kg once daily for 21 days orally) and anti-PD-L1 antibody (500 μg/animal once weekly via IP for 3 weeks) and initiated at Day 10 post-implant of CT26 cells.
There are 15 animals per group. Five animals per group are taken down on Day 20 post-implant of CT26 cells for the harvesting of spleens and tumors for the interrogation of the effect of the combination of merestinib and anti-PD-L1 antibody combination on immune functions. Ten animals per group remain for the duration of the study unless, as pre-defined in the study protocol, the animal is to be sacrificed if the tumor volume exceeds 2500 mm^3 or is ulcerated. Tumor volumes and body weight are measured bi-weekly. Tumor volume is estimated by using the formula: v=l×w2×0.536 where l=larger of measured diameter and w=smaller of perpendicular diameter.
The last dose of drug is received on Day 20, Day 27, Day 27, Day 27 and Day 31, respectively, for group 2, group 3, group 4, group 5 and group 6. On Day 64, about 1 month to 1.5 months after completing drug-dosing, animals that are still alive and with tumor response classified as PR (partial responder) or CR (complete responder) are re-challenged with a new implantation of CT26 tumor cells (1×10^6 cells in HBSS) subcutaneously into the contralateral side of the hind flank (left side) of the animal under anesthesia. The definition of PR and CR is in the statistical method section below. Three naïve animals (study protocol S035116) are used as control and are implanted with the same batch of CT26 tumor cells (1×10^6 cells in HBSS) subcutaneously into the left hind flank of the animal under anesthesia. Tumor growth is monitored and measured in the animals. […]

immune cells = assay: Flow cytometry analysis of immune cells in spleens and tumors; format: in vivo, mouse; conditions: compared to concurrent combination or vehicle control
Protocol: Spleens and tumors are collected from a subset of animals on the indicated study day(s) and processed for FACS analysis by homogenizing tissues through a tissue strainer to prepare a single cell suspension in culture medium. Single cell suspensions are then stained with fluorescently-labeled antibodies to identify immune markers including: CD3, CD4, CD8, CD11b, CD19, CD45, FoxP3, PD-L1, F4/80 and a fixable viability dye. Cells are analyzed using a BD LSR II flow cytometer. Data are collected and analyzed using Flowjo (Tree Star, Inc.) to measure the percentage of total live lymphocytes (Live, CD45+) in each tissue. Immune cell subsets are then measured as a percentage of CD45 cells, or as a percentage of the immediate parent population.

[2] = animals of 10/group, tumor volume ≤25 mm^3

SMILES: Cc1ccc(C(=O)Nc2ccc(Oc3cc4cnn(C)c4cc3-c3cn[nH]c3)c(F)c2)c(=O)n1-c1ccc(F)cc1 [merestinib, N-(3-fluoro-4-(1-methyl-6-(1H-pyrazol-4-yl)-1H-indazol-5-yloxy)phenyl)-1-(4-fluorophenyl)-6-methyl-2-oxo-1,2-dihydropyridine-3-carboxamide]
- decrease of p-AXL (phospho-AXL (p-AXL)): more than 60%
- tumor growth after cessation of dosing ([1]; 12 mg/kg, after the 21 day dosing period, Days 33-40): grew exponentially
- % Response (% ΔT/C above baseline, % Regression below baseline) ([1]; Day 8): −65.5%
- Mean Tumor Volume ([1]; Day 8): 64.7
- % Response (% ΔT/C above baseline, % Regression below baseline) ([1]; Day 12): −29.4%
- Mean Tumor Volume ([1]; Day 12): 132.5
- % Response (% ΔT/C above baseline, % Regression below baseline) ([1]; Day 15): 14.6%
- Mean Tumor Volume ([1]; Day 15): 206.6
- % Response (% ΔT/C above baseline, % Regression below baseline) ([1]; Day 19): 53.7%
- Mean Tumor Volume ([1]; Day 19): 357.7
- % Response (% ΔT/C above baseline, % Regression below baseline) ([1]; Day 22): 35.6%
- Mean Tumor Volume ([1]; Day 22): 491.5
- % Response (% ΔT/C above baseline, % Regression below baseline) ([1]; Day 25): 31.3%
- Mean Tumor Volume ([1]; Day 25): 717.0
- % Response (% ΔT/C above baseline, % Regression below baseline) ([1]; Day 28): 24.8%
- Mean Tumor Volume ([1]; Day 28): 845.3
- % Response (% ΔT/C above baseline, % Regression below baseline) ([1]; Day 33): 27.1%
- Mean Tumor Volume mm^3 ([1]; Day 33): 1609.0 mm^3
- T/C % ([1]; Day 33): 31.2%
- anti-tumor effect as compared to vehicle control ([1]; Day 33 / end of dosing): significant anti-tumor effect
- Difference (Treatment 1 − Treatment 2), log scale tumor volume ([1]; Day 33, Treatment 1 = Vehicle control): 0.529
- Mean Tumor Volume ([1]; Day 33): 1608.2
- Day 33 Treatment Responders GD (Growth Delay) ([1]; animals of 10/group): 1
- Day 33 Treatment Responders PD (Progressive Disease) ([1]; animals of 10/group): 9
- Day 33 Treatment Responders PR (Partial Response) ([1]; animals of 10/group): 0
- Day 64 Treatment Responders GD (Growth Delay) ([1]; animals of 10/group): 1
- Day 64 Treatment Responders PD (Progressive Disease) ([1]; animals of 10/group): 9
- Day 64 Treatment Responders PR (Partial Response) ([1]; animals of 10/group): 0
- Day 33 Treatment Responders CR (Complete and durable Regression) [1, 2]: 0
- Day 64 Treatment Responders CR (Complete and durable Regression) [1, 2]: 0
- change in immune cells by flow cytometry (immune cells): no significant change
